In general, IC50 refers to the concentration needed to halve the response being measured.

The test system of the test is Palmitoyl CoA oxidation in rat heart mitochondria. Nature of the test: Palmitoyl CoA oxidation in isolated rat heart mitochondria (Mitochondrial Assays). The class given is biochemical. As to conditions: 1-C14 palmitoyl CoA, 15 min at 30° C., read-out: Palm CoA inhibition IC50. How it is done: Rat heart mitochondria are isolated by the method of Nedergard and Cannon (Methods in Enzymol. 55, 3, 1979).
Palmitoyl CoA oxidation—The Palmityl CoA oxidation is carried out in a total volume of 100 micro liters containing the following agents: 110 mM KCl, 33 mM Tris buffer at pH 8, 2 mM KPi, 2 mM MgCl2, 0.1 mM EDTA, 14.7 microM defatted BSA, 0.5 mM malic acid, 13 mM carnitine, 1 mM ADP, 52 micrograms of mitochondrial protein, and 16 microM 1-C14 palmitoyl CoA (Sp. Activity 60 mCi/mmole; 20 microCi/ml, using 5 microliters per assay). The compounds of this invention are added in a DMSO solution at the following concentrations: 100 micro molar, 30 micro molar, and 3 micro molar. In each assay, a DMSO control is used. After 15 min at 30° C., the enzymatic reaction is centrifuged (20,000 g for 1 min), and 70 microliters of the supernatant is added to an activated reverse phase silicic acid column (approximately 0.5 ml of silicic acid). The column is eluted with 2 ml of water, and 0.5 ml of the eluent is used for scintillation counting to determine the amount of C^14 trapped as C^14 bicarbonate ion.
Turning to `Cc1nc2cc(OCC(CN3CCN(CC(=O)Nc4cccc(-c5ccccc5)c4)CC3)NS(C)(=O)=O)ccc2s1` (stereo not shown) [2-(4-{3-(2-methylbenzothiazol-5-yloxy)-2-[(methylsulfonyl)amino]propyl}piperazinyl)-N-(3-phenylphenyl)acetamide], the IC50 was 2.9 µM. Next, `CC(=O)NC(COc1ccc2sc(C)nc2c1)CN1CCN(CC(=O)Nc2cccc(-c3ccccc3)c2)CC1` (stereo not shown) [2-{4-[2-(acetylamino)-3-(2-methylbenzothiazol-5-yloxy)propyl]piperazinyl}-N-(3-phenylphenyl)acetamide]: 12.7 µM.

As for `CC(=O)NC(COc1ccc2sc(C)nc2c1)CN1CCN(C(=O)Nc2ccc3c(c2)Cc2ccccc2-3)CC1` (stereo not shown) [N-{2-[4-(N-fluoren-2-ylcarbamoyl)piperazinyl]-1-[(2-methylbenzothiazol-5-yloxy)methyl]ethyl}acetamide], the IC50 was determined as 8.2 µM. The same measure for “N-fluoren-2-yl(4-{3-(2-methylbenzothiazol-5-yloxy)-2-[(methylsulfonyl)amino]propyl}-piperazinyl)carboxamide”: 3 µM.
